ChEMBL document CHEMBL1201862, “PubChem BioAssay data set” (2004)
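Values below derive from 48-hour exposures of cells grown in 96-well plates, with endpoints linearly interpolated between the two concentrations bracketing the appropriate inhibition level. Abbreviation: GI50, concentration required for 50% inhibition of growth.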 Active and inactive are the calls of the source. No stated cut-off is given here; in the data, active = GI50 up to about 1.1 µM and inactive = higher.

Assays:
Test in all cases: NCI anticancer screen, dose series, 48 h
786-0 = system: 786-0
A498 = system: A498
A549 = system: A549
ACHN = system: ACHN
BT-549 = system: BT-549
CAKI-1 = system: CAKI-1
COLO 205 = system: COLO 205
DU-145 = system: DU-145
EKVX = system: EKVX
HCT-116 = system: HCT-116
HCT-15 = system: HCT-15
HL-60 = system: HL-60
HOP-62 = system: HOP-62
HOP-92 = system: HOP-92
HT-29 = system: HT-29
IGROV-1 = system: IGROV-1
K562 = system: K562
KM12 = system: KM12
LOX IMVI = system: LOX IMVI
M14 = system: M14
MCF7 = system: MCF7
MDA-MB-231 = system: MDA-MB-231
MDA-MB-435 = system: MDA-MB-435
MDA-N = system: MDA-N
MOLT-4 = system: MOLT-4
NCI-H226 = system: NCI-H226
NCI-H23 = system: NCI-H23
NCI-H460 = system: NCI-H460
NCI/ADR-RES = system: NCI/ADR-RES
OVCAR-3 = system: OVCAR-3
OVCAR-4 = system: OVCAR-4
OVCAR-5 = system: OVCAR-5
OVCAR-8 = system: OVCAR-8
PC-3 = system: PC-3
RPMI-8226 = system: RPMI-8226
RXF 393 = system: RXF 393
SF-295 = system: SF-295
SF-539 = system: SF-539
SK-MEL-28 = system: SK-MEL-28
SK-MEL-2 = system: SK-MEL-2
SK-MEL-5 = system: SK-MEL-5
SK-OV-3 = system: SK-OV-3
SN12C = system: SN12C
SNB-19 = system: SNB-19
SNB-75 = system: SNB-75
SR = system: SR
SW-620 = system: SW-620
T47D = system: T47D
TK-10 = system: TK-10
U-251 = system: U-251
UACC-257 = system: UACC-257
UACC-62 = system: UACC-62
UO-31 = system: UO-31

Measured: GI50

Cc1ccc(S(=O)(=O)OC2CC(C(C)(C)C)CCC2c2ccccc2)cc1 (stereo not drawn)
inactive: 786-0 > 100 µM | A498 > 100 µM | A549 40.6 µM | ACHN 54.6 µM | BT-549 > 100 µM | CAKI-1 66.1 µM | COLO 205 > 100 µM | DU-145 > 100 µM | EKVX > 100 µM | HCT-116 50 µM | HL-60 > 100 µM | HOP-62 53 µM | HOP-92 23.3 µM | HT-29 32.1 µM | IGROV-1 72.8 µM | K562 53.5 µM | KM12 99.8 µM | LOX IMVI > 100 µM | M14 88.7 µM | MCF7 35.1 µM | MDA-MB-231 > 100 µM | MDA-MB-435 66.1 µM | MDA-N 99.8 µM | MOLT-4 44.6 µM | NCI-H226 > 100 µM | NCI-H23 > 100 µM | NCI-H460 78.7 µM | NCI/ADR-RES > 100 µM | OVCAR-3 93.5 µM | OVCAR-4 34.9 µM | OVCAR-5 > 100 µM | OVCAR-8 > 100 µM | PC-3 70 µM | RPMI-8226 17.9 µM | RXF 393 89.7 µM | SF-295 42.1 µM | SF-539 > 100 µM | SK-MEL-28 > 100 µM | SK-MEL-2 > 100 µM | SK-MEL-5 79.8 µM | SK-OV-3 > 100 µM | SN12C > 100 µM | SNB-19 86.7 µM | SNB-75 27.9 µM | SR 23.6 µM | SW-620 > 100 µM | T47D 53.7 µM | TK-10 > 100 µM | U-251 50.1 µM | UACC-257 29 µM | UACC-62 57.5 µM | UO-31 > 100 µM
> 100 µM: HCT-15
